Results as given in US8809010B2, “Method for prophylactic treatment of alzheimer's disease using inhibitors of glutaminyl cyclase and glutamate cyclases” (Probiodrug AG, priority 2003, dated 2014).

How the values were obtained:
[1] = target: T1, human QC (Homo sapiens, UniProt Q16769); test: Qualitative substrate conversion (MALDI-TOF / fluorometric); assay type: biochemical
T1 construct: The cDNA of the mature QC starting with codon 38 was fused in frame with the plasmid encoded 6× histidine tag; 6xHis; made in house; host or cells: Pichia pastoris X33 (pPICZαB, secreted); also E. coli M15 (pQE-31)
T1 sequence (Q16769 29-361): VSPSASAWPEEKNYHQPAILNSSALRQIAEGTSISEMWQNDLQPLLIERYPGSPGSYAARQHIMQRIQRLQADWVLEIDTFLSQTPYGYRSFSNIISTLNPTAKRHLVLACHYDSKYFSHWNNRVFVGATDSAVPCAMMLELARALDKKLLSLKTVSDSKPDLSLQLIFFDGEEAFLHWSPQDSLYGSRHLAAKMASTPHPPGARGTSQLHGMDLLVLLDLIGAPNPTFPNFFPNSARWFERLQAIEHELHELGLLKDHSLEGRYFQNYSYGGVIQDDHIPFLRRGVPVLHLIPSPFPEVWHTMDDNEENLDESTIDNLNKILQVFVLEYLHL
Description: (§1) Matrix-assisted laser desorption/ionization mass spectrometry was carried out using the Hewlett-Packard G2025 LD-TOF System with a linear time of flight analyzer. […] Samples (5 μl) were mixed with equal volumes of the matrix solution. For matrix solution we used DHAP/DAHC, prepared by solving 30 mg 2′,6′-dihydroxyacetophenone (Aldrich) and 44 mg diammonium hydrogen citrate (Fluka) in 1 ml acetonitrile/0.1% TFA in water (1/1, v/v). A small volume (≈1 μl) of the matrix-analyte-mixture was transferred to a probe tip and immediately evaporated in a vacuum chamber (Hewlett-Packard G2024A sample prep accessory) to ensure rapid and homogeneous sample crystallization.
In order to further investigate the specificity and selectivity of the QCs, peptides were synthesized comprising either a modified N-terminal glutaminyl residue or a modified amino acid in the second position. […] Due to the cyclization of the glutaminyl residue or its analog, respectively, a mass difference of the substrate and the product of catalysis is detected. In cases of ammonia liberation of one mole per mole of substrate, the conversion was also analyzed quantitatively using the spectrophotometric assay.

[2] = Nonenzymatic pGlu-formation at pH 6.0 followed for 4 weeks; conditions: pH 6.0, 4 weeks
[3] = test system: HEK293 cells; test: Aβ in conditioned medium after transient APP expression, BACE I inhibition, ELISA; assay type: cell-based, human
Description: (§2) The constructs are depicted in FIG. 33. The APP-encoding plasmids differed with respect to the sequence surrounding the β-secretase cleavage site, i.e. either carried the swedish mutation (KM595/596NL) or the wild-type sequence (K595M596) at the β-secretase-cleavage site. Furthermore, the constructs encoded either the London (V642I) or wild-type sequence (V642) near the γ-secretase cleavage site. The swedish mutation leads to an elevated generation of Aβ due to enhanced cleavage by the β-secretase BACE I. The London mutation mediates enhanced formation of Aβ42 peptides compared to the wild-type sequence without affecting the total Aβ generation.
(§3) In order to substantiate the role of these newly discovered enzyme activity generating the molecular precursor of pGlu-Aβ peptides, inhibitors of the known β-secretase BACE I were employed in experiments based on transient expression of the plasmid constructs outlined in FIG. 33. Similar to the observations with the APP(N3Q) constructs, N-terminally truncated peptides were generated mainly after APP-WT and APP-London expression.
(§4) Aβ(x-40), Aβ(x-42) and Aβ (N3pE-42)-specific sandwich ELISAs (all from IBL, Hamburg) were performed according to the manufacturer's manual. […] After applying the stop solution the absorption at 450 nm was measured using a microplate reader (TECAN Sunrise). […]

[4] = test system: LNZ-308 cells; test: as above; assay type: cell-based
Description: as §2, §3, §4

[5] = physchem; conditions: pKa of the substrate amino group, determined by titration
Description: The ionic strength was adjusted to 0.05 M by addition of NaCl. The rate profiles were evaluated by fitting to a model that is based on dissociating groups.
For both determinations, a three-component buffer system was applied consisting of 0.05 M acetic acid, 0.05 M pyrophosphoric acid and 0.05 M Tricine. All buffers were adjusted to equal conductivity by addition of NaCl, in order to avoid differences in ionic strength. […] All determinations were carried out at 30° C.

[6] = target: T2, DP IV (porcine kidney) (Sus scrofa, UniProt P22411); test: DP IV cleavage of [Gln3]Aβ1-11a, MALDI-TOF; assay type: biochemical
T2 construct: Measurements were carried out using purified DP IV (porcine kidney); from tissue; host or cells: porcine kidney
T2 sequence (P22411 whole entry): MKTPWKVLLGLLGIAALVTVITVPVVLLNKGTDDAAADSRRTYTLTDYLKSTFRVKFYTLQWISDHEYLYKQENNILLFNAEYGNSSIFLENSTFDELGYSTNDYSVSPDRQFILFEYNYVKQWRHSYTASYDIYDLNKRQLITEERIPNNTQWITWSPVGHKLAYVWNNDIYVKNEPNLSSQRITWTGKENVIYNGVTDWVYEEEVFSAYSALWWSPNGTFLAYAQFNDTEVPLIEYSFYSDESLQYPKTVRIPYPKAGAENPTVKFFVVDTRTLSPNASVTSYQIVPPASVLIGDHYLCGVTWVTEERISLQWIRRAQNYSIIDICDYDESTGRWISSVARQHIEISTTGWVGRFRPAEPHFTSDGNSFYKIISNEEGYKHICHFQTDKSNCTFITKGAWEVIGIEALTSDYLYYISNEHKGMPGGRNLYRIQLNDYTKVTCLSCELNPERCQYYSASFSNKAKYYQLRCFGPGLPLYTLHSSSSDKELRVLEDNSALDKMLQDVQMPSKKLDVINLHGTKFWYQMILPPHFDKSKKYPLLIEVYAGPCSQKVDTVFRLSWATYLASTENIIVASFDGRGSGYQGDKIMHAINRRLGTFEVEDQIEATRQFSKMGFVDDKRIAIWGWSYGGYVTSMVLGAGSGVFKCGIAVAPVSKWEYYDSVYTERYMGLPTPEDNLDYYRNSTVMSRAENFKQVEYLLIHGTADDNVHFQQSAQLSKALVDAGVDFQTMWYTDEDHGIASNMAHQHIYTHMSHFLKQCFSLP
Description: as §1

[7] = test system: QC in porcine pituitary homogenate; test: Formation of [pGlu3]Aβ3-11a in porcine pituitary homogenate, MALDI-TOF; assay type: biochemical; conditions: pituitary homogenate with added DPIV from porcine kidney
Description: as §1

[8] = test system: THP-1 monocytes; test: TransWell chemotaxis assay; assay type: cell-based, human
Description: The chemotaxis assay was performed using 24 well TransWell plates with a pore size of 5 μm (Corning). Media, containing human MCP-1 variants expressed in HEK293, were used as chemoattractant. To this avail, 600 μl of the culture media of N-terminal human MCP-1 variants was applied directly or in dilutions 1:3, 1:10 and 1:30 in RPMI1640 to the lower chamber of the TransWell plate. Furthermore, undiluted media of HEK293 cells transfected with vector control were applied as negative control to the lower chamber. THP-1 cells were harvested and resuspended in RPMI1640 in a concentration of 1*10^6 cells/100 μl and applied in 100 μl aliquots to the upper chamber. Cells were allowed to migrate towards the chemoattractant for 2 h at 37° C. Subsequently, cells from the upper chamber were discarded and the lower chamber was mixed with 70 mM EDTA in PBS and incubated for 15 min at 37° C. to release cells attached to the membrane. Afterwards, cells migrated to the lower chamber were counted using a cell counter system (Schärfe System). The chemotactic index was calculated by dividing cells migrated to the stimulus from cells migrated to the negative control.

[9] = test system: pGlu-Aβ(3-42) formation in HEK293 and β-TC3 cells; test: pGlu-Aβ formation in cell culture (APP or mTRH-Aβ constructs), ELISA of medium; assay type: cell-based
Description: Aβ(x-42) shall here relate to all N-terminal Aβ or truncated Aβ forms.
In the accompanying approach, plasmids encoding variants of human APP were transfected into HEK293 cells (FIG. 24-2). The processing by β- and γ-secretase yields high amounts of Aβ(3-40/42), which can be detected in the culture medium.
For analysis of Aβ in case of the cell culture studies, conditioned medium was diluted using EIA buffer (IBL, Hamburg) as before and diluted samples were subjected to ELISA analysis.

[10] = test system: pGlu-Aβ(3-40) formation in rat cortex; test: Rat model, intracortical injection of Aβ peptides (traumatic brain injury), ELISA and immunohistochemistry; assay type: in vivo
Description: Aβ(x-40), Aβ(x-42) and Aβ (N3pE-42)-specific sandwich ELISAs (all from IBL, Hamburg) were performed according to the manufacturer's manual. Briefly, samples were diluted according to the expected concentration in the brain parts and applied onto a plate precoated with an antibody specific for the respective C-terminus. The samples were incubated overnight. The next day, the plate was washed 8 times and incubated for 1 h with a horse radish peroxidase conjugated detection antibody afterwards. Following this incubation the plate was washed 10 times and then developed with chromogen (TMB) for 30 min. After applying the stop solution the absorption at 450 nm was measured using a microplate reader (TECAN Sunrise). For preparation of standard curves the respective synthetic peptides supplied with the ELISA kits were used.
Samples for ELISA were prepared from 8 animals per group (total 32 animals). After removal of the brain, the tissue were flushed shortly with ice cold saline and placed shortly on filter paper. The cerebellum were prepared from each brain and stored separately. The brains were weighed and frozen in liquid nitrogen in 2 ml Cryo-tubes and stored at −80° C. until analysis.
For sequential separation of Aβ the following procedures were used: […]

[11] = Plasma half-life; assay type: in vivo; conditions: rat
[12] = test system: human MCP-1 concentration, HEK293 cells; test: Expression of human MCP-1 in HEK293 cells, MCP-1 ELISA of supernatant; assay type: cell-based; conditions: 10 μM inhibitor
Description: For expression of N-terminal variants of human MCP-1, HEK293 cells were cultured in collagen I coated 6-well dishes and grown until 80% confluency, transfected using Lipofectamin2000 (Invitrogen) according to manufacturer's manual and incubated in the transfection solution for 5 hours. Afterwards, cells were allowed to recover in normal growth media over night. The next day, cells were incubated another 24 h in growth media. When application of QC specific inhibitor […] was intended, cells were incubated for 24 h in absence or presence of 10 μM […]. […] Furthermore, an aliquot of cell culture supernatant was stored at −80° C. for quantification of human MCP-1 concentration using human MCP-1-ELISA (Pierce).

[13] = test system: cuffed femoral artery: vascular remodeling, monocyte adhesion, MCP-1 expression; test: Cuff-induced accelerated atherosclerosis in ApoE3*Leiden mice; assay type: in vivo; parameters: reduction of percentage of lumen stenosis / reduction of the area of neointima formation / reduction of total adhering cells / reduction of adhering monocytes / reduction of MCP-1 expression, absolute area, media / reduction of MCP-1 expression, absolute area, intima: concentration or dose not given beside the values
Description: After 3 weeks the mice underwent surgical non-constricting cuff placement (day 0) and were divided into 2 groups, matched for plasma cholesterol levels.
At the time of surgery, mice were anaesthetized with an intraperitoneal injection of 5 mg/kg Dormicum, 0.5 mg/kg Domitor and 0.05 mg/kg Fentanyl. This cocktail gives complete narcosis for at least one hour and can be quickly antagonized with Antisedan 2.5 mg/kg and Anexate 0.5 mg/kg.
A longitudinal 1 cm incision is made in the internal side of the leg and the femoral artery is dissected for 3 mm length from the femoral nerve and femoral vein. The femoral artery is looped with a ligature and a non-constrictive fine bore polyethylene tubing (0.4 mm inner diameter, 0.8 mm outer diameter, length 2 mm) is longitudinally opened and sleeved loosely around the femoral artery. The cuff is closed up with two ligature knots. The skin is closed with a continued suture.
For histological analysis, animals were sacrificed either 2 days or 14 days after cuff placement. […] After perfusion, a longitudinal 2 cm incision was made in the internal side of the leg and the cuffed femoral artery was harvested as a whole and fixed overnight in 4% formaldehyde and processed to paraffin.
Adhesion of leukocytes in general and monocytes/macrophages in particular to the activated endothelium of the cuffed vessel wall was analyzed by microscopic analysis of cross sections harvested 2 days after cuff placement. The number of adhering and/or infiltrating leukocytes in general, identified as adhering cells at the luminal side of the vessel segment, and monocytes/macrophages in particular was counted and illustrated as cells per cross-section or as defined areas per cross section. Monocytes were identified by specific immunohistochemical staining by AIA31240 antibody, recognizing monocytes and macrophages.
Vessel wall remodeling accelerated atherosclerosis and neoinitima formation were analyzed morphometrically in all mice sacrificed after 14 days. A full comparison between the two groups was performed for all relevant vessel wall parameters (neointima formation, vascular circumference (i.e. outward remodelling), media thickness, lumen stenosis). Accelerated atherosclerosis was analyzed by immunohistochemical staining for macrophages and foam cells in the lesion area by AIA31240 antibody.

[14] = Aβ aggregation assay with flow cytometry; assay type: physicochemical; conditions: 10 μM peptide, up to 24 h
Description: At different times, samples were removed, diluted to 10 nM (based on the initial concentration of the monomer), and analyzed by flow cytometry.
Seedless Aβ peptides were diluted to 10 μM (final total peptide concentration) into 50 mM sodium acetate, pH 5.5 containing 2 mM DTT and 100 mM NaCl and incubated at 37° C. without shaking. For fibril formation analysis, the peptides were either used as a mixture of unlabeled peptide (80%) and the respective fluorescence labeled peptide (20%) or as unlabeled peptides alone. […] In order to characterize the progress of the reaction, aliquots were removed at the indicated times, diluted to 10 nM into PBS-T (0.05% Tween-20) and analyzed. For reactions containing unlabeled peptides only, prior to flow cytometry aliquots were diluted to 5 nM into PBS-T and incubated with fluorescence labeled antibody 4G8 (Chemicon, Tececula, Calif.) at 1 nM for 1 h at 4° C.
To ensure identical conditions for all measurements, all samples were measured in TruCount Tubes (BD Biosciences) and analysis was stopped after 20,000 beads were counted. Counts were transferred into ANSMS for evaluation (Alzheimer normalized specific measurement signal: event counts from flow cytometry analysis normalized to the size of the particles, i.e. to a mean size of FS Log=250).

[15] = Thioflavin T assay of fibril formation; assay type: physicochemical
Description: The observations for the Aβ42 peptides were substantiated using a common ThT fluorescence assay (FIG. 24-6D). […] The typical lag phase, i.e. the thermodynamically unfavorable period, in which the seeds are generated, is displaced by a hyperbolic initial phase. Thus, there is a much higher tendency to formation of ThT positive initial aggregates.
Fibril formation analysis using Thioflavin T fluorescence was performed essentially as described previously (Chalifour R J, McLaughlin R W, Lavoie L, Morissette C, Tremblay N, Boule M, Sarazin P, Stea D, Lacombe D, Tremblay P, Gervais F 2003 Stereoselective interactions of peptide inhibitors with the beta-amyloid peptide. J Biol Chem 278:34874-34881). The DMSO stock solution was diluted in PBS to a final concentration of 50 μM of Aβ peptide. The peptide solution was added to an equal volume of ThT solution (20 μM ThT, 0.3 M NaCl, 0.01% NaN3) and applied to a 96-well microplate. Routinely, assays of each peptide were performed in triplicate on one plate. The plate was covered with an adhesive film (EXCEL Scientific, Wrightwood, Calif., USA) and incubated in the plate reader at 30° C. for up to 250 h. The fluorescence was measured every 4 h (excitation 440 nm, emission […]).

Compound: N[C@@H](CCC(=O)O)C(=O)Nc1ccc2ccccc2c1 [H-Glu-βNA]
- conversion by human QC [1]: None of these compounds were converted
- first-order rate constant of nonenzymatic pGlu-formation [2]: ≤ 1.0*10^−9 s^−1

Compound: C[C@@H](NC(=O)c1cc(C(=O)N[C@@H](Cc2ccccc2)[C@H](O)CNC2CC2)cc(N(C)S(C)(=O)=O)c1)c1ccccc1 [BACE IV]
- Aβ(1-40) and Aβ(1-42) [3]: reduced the N-terminally intact Aβ-peptides
- total Aβ40-concentration ([3]; HEK293 cells): did not influence the total Aβ40-concentration significantly
- total Aβ lowering [4]: only marginal efficacy

Compound: NC(=O)CC[C@H](N)C(=O)Nc1ccc2ccccc2c1 [H-Gln-βNA]
- pKa [5]: 7.16 ± 0.01
- first-order rate constant of nonenzymatic pGlu-formation [2]: 1.2*10^−7 s^−1

Compound: CC(C)[C@H](N)C(=O)N1CCCC1 [Val-Pyrr, Val-Pyrrolidide]
- DPIV-catalysed formation of [Gln^3]Aβ3-11a from [Gln^3]Aβ1-11a [6]: completely prevented
- formation of [pGlu^3]Aβ3-11a from [Gln^3]Aβ1-11a, consecutive catalysis by DP IV and QC [7]: not formed

Compound: MCP-1 (WT): human MCP-1(1-76) expressed in HEK293 cells
- chemotaxis of THP-1 cells ([8]; supernatant of transfected HEK293 cells): chemotactic response

Compound: COc1ccc(NC(=S)NCCCn2ccnc2)cc1OC.Cl [1-(3-(1H-imidazol-1-yl)propyl)-3-(3,4-dimethoxyphenyl)thiourea hydrochloride]
- pGlu-Aβ concentration in medium ([9]; HEK293 and β-TC3 settings): significantly reduced
- total Aβ concentration in medium ([9]; indicator of cell viability): not reduced
- pGlu-Aβ immunostaining ([10]; injected prior to Aβ(3-40)): significant reduction in pGlu-Aβ immunostaining
- pGlu-Aβ after injection of Aβ(1-40) ([10]; rat, in vivo): did not result in a clear reduction of pGlu-Aβ
- half-life [11]: < 60 min
- level of MCP-1 (WT) in supernatant [12]: not significantly changed
- chemotaxis of THP-1 cells towards MCP-1 (WT) supernatant ([8]; 10 μM inhibitor, dilutions 1:3 and 1:10): significantly lower chemotaxis
- reduction of MCP-1 expression, absolute area, intima ([13]; 2 days): 40%
- reduction of MCP-1 expression, absolute area, media ([13]; 2 days): 41%
- reduction of adhering monocytes ([13]; 2 days): 67%
- reduction of total adhering cells ([13]; 2 days): 45%
- MCP-1 expression in media or neointima ([13]; 14 days): no reduction of MCP-1 expression
- area of the media ([13]; 14 days): reduced
- reduction of percentage of lumen stenosis ([13]; 14 days): 40%
- reduction of the area of neointima formation ([13]; 14 days): 45%
- remaining lumen ([13]; 14 days): no statistically significant effect

Compound: Aβ(1-42): SEQ ID NO: 20
- fibril formation [14]: Only very little fibril formation

Compound: Fc1ccc(NC(=S)NCCCn2ccnc2)cc1
- melting point: 147 to 148 °C

Compound: pGlu-Aβ(3-40): N-terminally pyroglutamate-modified Aβ(3-40)
- aggregation, ThT fluorescence [15]: much faster aggregation compared to the non-cyclized counterpart
